Reference: patent US8952159B2, “Method for the production of amorphous rifaximin” (priority 2009, dated 2015)
In brackets after ≈: the same amount, converted by molar mass.

Assay: Comparative test of solubility in water of different forms of rifaximin (spectrophotometric, absorbance at 450.50 nm)
Format: physicochemical
Settings: suspension in deionized water, constant stirring; for Solubility in water: 25° C.
Experimental: The solubility in water of different forms of rifaximin was evaluated by means of spectrophotometric method, by performing the analyses on a Lambda10 (Perkin Elmer) apparatus. The tests were performed at room temperature in demineralized water according to the following methodology. 1 g of commercial rifaximin (identified as form γ by X diffractometry) was dried in thermogravimetric apparatus at 105° C. until constant weight. 50.3 mg of the dried powder were weighed and brought in solution with deionized water in 2-L calibrated flask (solution 1). Under these conditions rifaximin was fully dissolved. On a portion of the obtained solution the spectral scanning was performed in the range of wavelengths comprised between 190 and 800 nm, by using as white deionized water. The obtained absorption spectrum points out an isolated maximum at 450.50 nm and such wavelength was used for the analytical measures. The calibration straight line was obtained by dilution of portions of the solution 1, thus obtaining the solution 2 (dilution 1:2.5), the solution 3 (1:10), the solution 4 (1:20) and the solution 5 (1:50). The straight line resulted to follow the Lambert-Beer law, showing linearity in the concentration range of the five measured reference solutions. For the tests for comparing the solubilities of the different forms, the absorbance of samples obtained from rifaximin suspensions in water excess subjected to constant stirring at 25° C. was measured. After drying at 105° C. until weight constancy, quantities properly weighed of the samples under examination (for a value of about 15 mg) were placed in becker under magnetic stirring, at 25° C. with 80 ml of deionized water. Measures on different samples obtained according to the methodologies reported in the examples 8 and 13 (defined full amorphous), on amorphous ones obtained as described in the examples 1 and 5 (with two halos) and compared to those of commercially available rifaximin, verified as form γ. In different periods of time comprised between 0.5 and 180 minutes, about 2-ml collections were performed, placed in test tube, having the prudence of preventing the collection of the suspended solid by means of filtration with filters for HPLC with porosity 0.2 μm. 0.3 ml of the collected solution were read at the UV by measuring the absorbance 450.50 nm. The samples with higher concentration, with absorbances so as to fall out of the range of the calibration straight line, were diluted until going back to the calibration range. Each experimental point consisted in 3 measures, the values thereof, coincident within 5% of error, were mediated. The concentrations are expressed in grams/liter.

SMILES | Solubility in water (time 0.5 min) [µg/mL] | Solubility in water (time 2 min) [µg/mL] | Solubility in water (time 5 min) [µg/mL] | Solubility in water (time 10 min) [µg/mL] | Solubility in water (time 30 min) [µg/mL] | Solubility in water (time 60 min) [µg/mL] | Solubility in water (time 120 min) [µg/mL] | Solubility in water (time 180 min) [µg/mL] | solubility at 120 min (deionized water, 25 °C, water, thermodynamic from solid, time 120 min) [µg/mL] | solubility at 1 min (deionized water, 25 °C, water, thermodynamic from solid, time 1 min) [µg/mL]
CO[C@H]1/C=C/O[C@@]2(C)Oc3c(C)c(O)c4c(O)c(c5c(nc6cc(C)ccn65)c4c3C2=O)NC(=O)/C(C)=C\C=C\[C@H](C)[C@H](O)[C@@H](C)[C@@H](O)[C@@H](C)[C@H](OC(C)=O)[C@@H]1C [example 5, rifaximin] | – | – | 7.1 (≈ 9.03 µM) | 15 (≈ 19.1 µM) | 27 (≈ 34.4 µM) | 37 (≈ 47.1 µM) | 44 (≈ 56 µM) | 46 (≈ 58.5 µM) | – | –
CO[C@H]1/C=C/O[C@@]2(C)Oc3c(C)c(O)c4c(O)c(c5c(nc6cc(C)ccn65)c4c3C2=O)NC(=O)/C(C)=C\C=C\[C@H](C)[C@H](O)[C@@H](C)[C@@H](O)[C@@H](C)[C@H](OC(C)=O)[C@@H]1C [example 8, rifaximin] | 3.3 (≈ 4.2 µM) | 13 (≈ 16.5 µM) | 29 (≈ 36.9 µM) | 51 (≈ 64.9 µM) | 76 (≈ 96.7 µM) | 82 (≈ 104 µM) | – | 86.4 (≈ 110 µM) | 85 (≈ 108 µM) | –
CO[C@H]1/C=C/O[C@@]2(C)Oc3c(C)c(O)c4c(O)c(c5c(nc6cc(C)ccn65)c4c3C2=O)NC(=O)/C(C)=C\C=C\[C@H](C)[C@H](O)[C@@H](C)[C@@H](O)[C@@H](C)[C@H](OC(C)=O)[C@@H]1C [form γ, rifaximin] | 2.7 (≈ 3.44 µM) | 5.9 (≈ 7.51 µM) | 8.2 (≈ 10.4 µM) | 15 (≈ 19.1 µM) | 23 (≈ 29.3 µM) | 37 (≈ 47.1 µM) | 43 (≈ 54.7 µM) | 42 (≈ 53.4 µM) | – | 5.4 (≈ 6.87 µM)

Second part, the compound after the results:

Solubility in water (time 0.5 min) [µg/mL] | Solubility in water (time 2 min) [µg/mL] | Solubility in water (time 5 min) [µg/mL] | Solubility in water (time 10 min) [µg/mL] | Solubility in water (time 30 min) [µg/mL] | Solubility in water (time 60 min) [µg/mL] | Solubility in water (time 120 min) [µg/mL] | Solubility in water (time 180 min) [µg/mL] | solubility at 120 min (deionized water, 25 °C, water, thermodynamic from solid, time 120 min) [µg/mL] | solubility at 1 min (deionized water, 25 °C, water, thermodynamic from solid, time 1 min) [µg/mL] | SMILES
1.11 (≈ 1.41 µM) | 5.1 (≈ 6.49 µM) | 6.9 (≈ 8.78 µM) | 14 (≈ 17.8 µM) | 25 (≈ 31.8 µM) | 36 (≈ 45.8 µM) | 46 (≈ 58.5 µM) | 45 (≈ 57.3 µM) | – | – | CO[C@H]1/C=C/O[C@@]2(C)Oc3c(C)c(O)c4c(O)c(c5c(nc6cc(C)ccn65)c4c3C2=O)NC(=O)/C(C)=C\C=C\[C@H](C)[C@H](O)[C@@H](C)[C@@H](O)[C@@H](C)[C@H](OC(C)=O)[C@@H]1C [example 1, rifaximin]
– | – | 31 (≈ 39.4 µM) | 55 (≈ 70 µM) | 72 (≈ 91.6 µM) | 81 (≈ 103 µM) | 86 (≈ 109 µM) | 89 (≈ 113 µM) | – | – | CO[C@H]1/C=C/O[C@@]2(C)Oc3c(C)c(O)c4c(O)c(c5c(nc6cc(C)ccn65)c4c3C2=O)NC(=O)/C(C)=C\C=C\[C@H](C)[C@H](O)[C@@H](C)[C@@H](O)[C@@H](C)[C@H](OC(C)=O)[C@@H]1C [example 13, rifaximin]
